Data taken from the supplement of paper PMC10627819.

Assays:
S. pneumoniae D39V [1] = assay: fitness (endpoint OD595 vs no drug) (fraction); higher = more growth
How it was run: (§1)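 Fitness is computed from the optical density at which cultures reach stationary phase, divided by the robust mean of no-drug control wells. Any value above 1 is set to 1. Cultures started at OD595 0.01 in 384-well plates with TSB, LB Lennox or CY at 37 °C, and OD595 was read every 30 min for 14 h against a first-reading background.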

S. aureus Newman [2] = assay: as above
How it was run: as §1

S. aureus DSM 20231 [3] = assay: as above
How it was run: as §1

B. subtilis 168 [4] = assay: as above
How it was run: as §1

S. pneumoniae D39V [5] = assay: Bliss interaction score (quartile over a dose matrix) (fitness difference); higher = more antagonism (negative = synergy)
How it was run: (§2)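 Each plate was normalised to the robust mean of its own no-drug wells, using OD595 at entry into stationary phase, with values capped at 1. This normalised growth is the fitness value. The Bliss score is the difference between observed and product-expected fitness, with single-drug fitness inferred from the combination data and quartiles taken over technical, biological and donor/recipient replicates.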

S. aureus Newman [6] = assay: as above
How it was run: as §2

S. aureus DSM 20231 [7] = assay: as above
How it was run: as §2

B. subtilis 168 [8] = assay: as above
How it was run: as §2
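Wherever Bliss interaction score (quartile over a dose matrix) is given: first quartile when negative (synergy) and third quartile when positive (antagonism).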

CCCCCCCCCC(=O)N[C@@H](Cc1c[nH]c2ccccc12)C(=O)N[C@H](CC(N)=O)C(=O)N[C@@H](CC(=O)O)C(=O)N[C@@H]1C(=O)NCC(=O)N[C@@H](CCCN)C(=O)N[C@@H](CC(=O)O)C(=O)N[C@H](C)C(=O)N[C@@H](CC(=O)O)C(=O)NCC(=O)N[C@H](CO)C(=O)N[C@@H]([C@H](C)CC(=O)O)C(=O)N[C@@H](CC(=O)c2ccccc2N)C(=O)O[C@@H]1C [Daptomycin] + CN1C2=CC=CC=C2N=C3C1=CC=CC3=O [Pyocyanin]
fitness
Settings | first compound 0.125 µg/mL | first compound 0.25 µg/mL | first compound 0.5 µg/mL | first compound 1 µg/mL | first compound 2 µg/mL | first compound 4 µg/mL
B. subtilis 168 [4], partner 1.25 µg/mL | 0.868 | 0.89 | 0.846 | – | – | –
B. subtilis 168 [4], partner 2.5 µg/mL | 0.846 | 0.817 | 0.803 | – | – | –
B. subtilis 168 [4], partner 5 µg/mL | 0.718 | 0.755 | 0.679 | – | – | –
S. aureus DSM 20231 [3], partner 1.25 µg/mL | – | – | 0.891 | 0.969 | 0.727 | –
S. aureus DSM 20231 [3], partner 2.5 µg/mL | – | – | 0.936 | 0.974 | 0.737 | –
S. aureus DSM 20231 [3], partner 5 µg/mL | – | – | 0.627 | 0.707 | 0.639 | –
S. aureus Newman [2], partner 1.25 µg/mL | 0.871 | 0.874 | 0.904 | – | – | –
S. aureus Newman [2], partner 2.5 µg/mL | 0.839 | 0.857 | 0.855 | – | – | –
S. pneumoniae D39V [1], partner 0.325 µg/mL | – | – | – | ≥ 1 | ≥ 1 | 0.994
S. pneumoniae D39V [1], partner 0.65 µg/mL | – | – | – | 0.905 | 0.944 | 0.931
S. pneumoniae D39V [1], partner 1.3 µg/mL | – | – | – | 0.615 | 0.604 | 0.582

fitness, one replicate
Settings | partner 1.25 µg/mL | partner 2.5 µg/mL | partner 5 µg/mL
B. subtilis 168 [4], first compound 1 µg/mL | 0.697 | 0.652 | 0.552
S. aureus DSM 20231 [3], first compound 0.125 µg/mL | 0.798 | 0.814 | 0.577
S. aureus DSM 20231 [3], first compound 0.25 µg/mL | 0.86 | 0.938 | 0.581

Settings | Bliss interaction score
B. subtilis 168 [8] | -0.0565
S. aureus DSM 20231 [7] | -0.0886
S. aureus Newman [6] | 0.0899
S. pneumoniae D39V [5] | -0.0802

CCCCCCCCCC(=O)N[C@@H](Cc1c[nH]c2ccccc12)C(=O)N[C@H](CC(N)=O)C(=O)N[C@@H](CC(=O)O)C(=O)N[C@@H]1C(=O)NCC(=O)N[C@@H](CCCN)C(=O)N[C@@H](CC(=O)O)C(=O)N[C@H](C)C(=O)N[C@@H](CC(=O)O)C(=O)NCC(=O)N[C@H](CO)C(=O)N[C@@H]([C@H](C)CC(=O)O)C(=O)N[C@@H](CC(=O)c2ccccc2N)C(=O)O[C@@H]1C [Daptomycin] + CC1=C\[C@@H](O)CC(=O)Cc2nc(co2)C(=O)N2CCC=C2C(=O)O[C@H](C(C)C)[C@H](C)/C=C/C(=O)NC\C=C\1 [Virginiamycin M1]
one replicate
Settings | fitness
B. subtilis 168 [4], first compound 1 µg/mL, partner 0.0625 µg/mL | 0.702
B. subtilis 168 [4], first compound 1 µg/mL, partner 0.125 µg/mL | 0.698
B. subtilis 168 [4], first compound 1 µg/mL, partner 0.25 µg/mL | 0.765
S. aureus DSM 20231 [3], first compound 0.125 µg/mL, partner 0.0625 µg/mL | 0.898
S. aureus DSM 20231 [3], first compound 0.125 µg/mL, partner 0.125 µg/mL | ≥ 1
S. aureus DSM 20231 [3], first compound 0.125 µg/mL, partner 0.5 µg/mL | 0.906
S. aureus DSM 20231 [3], first compound 0.125 µg/mL, partner 1 µg/mL | 0.887
S. aureus DSM 20231 [3], first compound 0.25 µg/mL, partner 0.0625 µg/mL | 0.855
S. aureus DSM 20231 [3], first compound 0.25 µg/mL, partner 0.125 µg/mL | ≥ 1
S. aureus DSM 20231 [3], first compound 0.25 µg/mL, partner 0.5 µg/mL | 0.92
S. aureus DSM 20231 [3], first compound 0.25 µg/mL, partner 1 µg/mL | 0.838
S. aureus DSM 20231 [3], first compound 0.5 µg/mL, partner 0.5 µg/mL | 0.908
S. aureus DSM 20231 [3], first compound 0.5 µg/mL, partner 1 µg/mL | 0.848
S. aureus Newman [2], first compound 0.5 µg/mL, partner 0.5 µg/mL | 0.894
S. aureus Newman [2], first compound 0.5 µg/mL, partner 1 µg/mL | ≥ 1
S. aureus Newman [2], first compound 0.5 µg/mL, partner 2 µg/mL | 0.882
S. aureus Newman [2], first compound 1 µg/mL, partner 0.5 µg/mL | 0.864
S. aureus Newman [2], first compound 1 µg/mL, partner 1 µg/mL | 0.948
S. aureus Newman [2], first compound 1 µg/mL, partner 2 µg/mL | 0.875
S. aureus Newman [2], first compound 2 µg/mL, partner 0.5 µg/mL | 0.921
S. aureus Newman [2], first compound 2 µg/mL, partner 1 µg/mL | 0.989
S. aureus Newman [2], first compound 2 µg/mL, partner 2 µg/mL | 0.856
S. pneumoniae D39V [1], first compound 1 µg/mL, partner 0.15 µg/mL | 0.892
S. pneumoniae D39V [1], first compound 1 µg/mL, partner 0.3 µg/mL | 0.754
S. pneumoniae D39V [1], first compound 2 µg/mL, partner 0.15 µg/mL | 0.893
S. pneumoniae D39V [1], first compound 2 µg/mL, partner 0.3 µg/mL | 0.84
S. pneumoniae D39V [1], first compound 4 µg/mL, partner 0.15 µg/mL | 0.924
S. pneumoniae D39V [1], first compound 4 µg/mL, partner 0.3 µg/mL | 0.877

fitness
Settings | first compound 0.125 µg/mL | first compound 0.25 µg/mL | first compound 0.5 µg/mL | first compound 1 µg/mL | first compound 2 µg/mL | first compound 4 µg/mL
B. subtilis 168 [4], partner 0.0625 µg/mL | 0.946 | 0.924 | 0.894 | – | – | –
B. subtilis 168 [4], partner 0.125 µg/mL | 0.92 | 0.931 | 0.862 | – | – | –
B. subtilis 168 [4], partner 0.25 µg/mL | 0.93 | 0.934 | 0.891 | – | – | –
S. aureus DSM 20231 [3], partner 0.0625 µg/mL | – | – | ≥ 1 | ≥ 1 | 0.966 | –
S. aureus DSM 20231 [3], partner 0.125 µg/mL | – | – | ≥ 1 | ≥ 1 | 0.959 | –
S. aureus DSM 20231 [3], partner 0.25 µg/mL | 0.944 | 0.918 | ≥ 1 | ≥ 1 | 0.972 | –
S. aureus Newman [2], partner 0.0625 µg/mL | ≥ 1 | ≥ 1 | 0.981 | – | – | –
S. aureus Newman [2], partner 0.125 µg/mL | ≥ 1 | ≥ 1 | 0.994 | – | – | –
S. aureus Newman [2], partner 0.25 µg/mL | 0.984 | 0.999 | 0.975 | – | – | –
S. pneumoniae D39V [1], partner 0.5 µg/mL | – | – | – | 0.991 | 0.984 | 0.976
S. pneumoniae D39V [1], partner 1 µg/mL | – | – | – | 0.992 | ≥ 1 | 0.997
S. pneumoniae D39V [1], partner 2 µg/mL | – | – | – | 0.909 | 0.927 | 0.919

Settings | Bliss interaction score
B. subtilis 168 [8] | -0.0543
S. aureus DSM 20231 [7] | 0.0655
S. aureus Newman [6] | 0.0243
S. pneumoniae D39V [5] | 0.0768
